Measurements from PubChem BioAssay (NCI).
Values joined by “and” are separate entries in the source; they are usually repeats but may differ in a detail not shown here. Equal values may be shown once.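 Following 48 hours of exposure in 96-well plates, responses at five concentrations were used to interpolate endpoints linearly. GI50 = concentration required for 50% inhibition of growth. TGI marks complete inhibition of growth.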

Key:
Test in all cases: DTP human tumour cell line panel, 48 h
[1] = tested on: HOP-62 NSCLC
[2] = tested on: MALME-3M melanoma
[3] = tested on: MCF7 breast
[4] = tested on: MOLT-4 leukemia
[5] = tested on: NCI-H226 lung
[6] = tested on: OVCAR-4 ovarian
[7] = tested on: SF-295 CNS
[8] = tested on: SF-539 CNS
[9] = tested on: SK-MEL-5 melanoma
[10] = tested on: U251 CNS

Molecule O=C1c2cccnc2-c2nc(-c3ccccc3)cc3c2c1nc1ccccc13 has a GI50 [1] of 14.5 µM, a TGI [1] of 28.3 µM and a GI50 [2] of 3.38 µM. For the same molecule, the TGI [2] was 16.1 µM, the GI50 [3] was 1.09 µM and the TGI [3] was 4.11 µM. The GI50 [4] was 2.5 µM, the TGI [4] was 14.8 µM and the GI50 [5] was 9.39 µM. The TGI [5] was 24.1 µM, the GI50 [6] was 4.33 µM and the TGI [6] was 10.1 µM. The GI50 [7] was 11.4 µM, the TGI [7] was 25.3 µM and the GI50 [8] was 17.8 µM. For the same molecule, the TGI [8] was 43.3 µM, the GI50 [9] was 1.27 µM and the TGI [9] was 3.88 µM. The GI50 [10] was 4.09 µM and the TGI [10] was 19.6 µM.
C[C@@H](Oc1cc(-n2cnc3ccc(OCC4CCN(C)CC4)cc32)sc1C(N)=O)c1ccccc1C(F)(F)F showed a GI50 [1] of 0.0994 µM, a TGI [1] of 3.11 µM and a GI50 [2] of 2.79 µM. For the same molecule, the TGI [2] was 6.97 µM, the GI50 [3] was 0.0651 µM and the TGI [3] was 3.18 µM. For the same molecule, the GI50 [4] was 0.0916 µM, the TGI [4] was 2.98 µM and the GI50 [5] was 1.55 µM. The TGI [5] was 6.16 µM, the GI50 [6] was 0.699 µM and the TGI [6] was 4.69 µM. For the same molecule, the GI50 [7] was 0.138 µM, the TGI [7] was 3.39 µM and the GI50 [8] was 0.144 µM. For the same molecule, the TGI [8] was 1.08 µM, the GI50 [9] was 0.217 µM and the TGI [9] was 2.95 µM. The GI50 [10] was 0.11 µM and the TGI [10] was 3.4 µM.
O=S(=O)(Nc1ccc2ccc3cccc4ccc1c2c34)c1ccccc1 was tested, and the TGI [1] was greater than 100 µM, the TGI [2] was greater than 100 µM and the TGI [3] was greater than 100 µM. The TGI [4] was greater than 100 µM, the TGI [5] was greater than 100 µM and the TGI [6] was greater than 100 µM. The TGI [7] was greater than 100 µM, the TGI [8] was greater than 100 µM and the TGI [9] was greater than 100 µM. For the same molecule, the TGI [10] was greater than 100 µM.
In the case of O=C(O)Cc1ccccc1, the GI50 [1] was greater than 1000 µM, the TGI [1] was greater than 2000 µM and the GI50 [2] was greater than 1000 µM. For the same molecule, the TGI [2] was > 1000 µM and 1970 µM, the TGI [3] was greater than 2000 µM and the GI50 [4] was greater than 1000 µM. For the same molecule, the TGI [4] was > 1000 µM and 1260 µM, the GI50 [5] was greater than 1000 µM and the TGI [5] was greater than 2000 µM. For the same molecule, the GI50 [6] was greater than 1000 µM, the TGI [6] was > 1000 µM and 727 µM and the TGI [7] was greater than 2000 µM. The GI50 [8] was greater than 1000 µM, the TGI [8] was greater than 2000 µM and the GI50 [9] was greater than 1000 µM. It also gave a TGI [9] greater than 2000 µM, a GI50 [10] greater than 1000 µM and a TGI [10] greater than 2000 µM.
In the case of O=C1/C(=C\c2ccccc2)CN(C(=O)c2ccccc2F)C/C1=C\c1ccccc1, the GI50 [1] was 2.53 µM, the TGI [1] was 6.57 µM and the GI50 [2] was 2.24 µM. The TGI [2] was 4.75 µM, the GI50 [3] was 0.449 µM and the TGI [3] was 2.07 µM. It also gave a GI50 [4] of 2.93 µM, a TGI [4] of 8.51 µM and a GI50 [5] of 5.6 µM. It also gave a TGI [5] of 21.5 µM, a GI50 [6] of 3.04 µM and a TGI [6] of 11.2 µM. The GI50 [7] was 2.24 µM, the TGI [7] was 5.77 µM and the GI50 [8] was 2 µM. The TGI [8] was 4.12 µM, the GI50 [9] was 1.7 µM and the TGI [9] was 3.23 µM. It also gave a GI50 [10] of 1.68 µM and a TGI [10] of 3.26 µM.
Work on COC(=O)Oc1nn(C(=O)OC)c(=O)c2ccccc12 (tested in a mixture with another compound) yielded a TGI [1] greater than 100 µM, a TGI [2] greater than 100 µM and a TGI [3] greater than 100 µM. The TGI [4] was greater than 100 µM, the TGI [5] was greater than 100 µM and the TGI [6] was greater than 100 µM. For the same molecule, the TGI [7] was greater than 100 µM, the TGI [8] was greater than 100 µM and the TGI [9] was greater than 100 µM. For the same molecule, the TGI [10] was greater than 100 µM.
With CCOC(=O)/C(=C/c1c(-c2ccccc2)[nH]c2ccccc12)C(=O)c1ccc(Cl)cc1 the GI50 [1] was 4.59 µM, the TGI [1] was greater than 100 µM and the GI50 [2] was 3.09 µM. For the same molecule, the TGI [2] was greater than 100 µM, the GI50 [3] was 2.91 µM and the TGI [3] was greater than 100 µM. For the same molecule, the GI50 [4] was 2.57 µM, the TGI [4] was 8.21 µM and the GI50 [5] was 5.6 µM. It also gave a TGI [5] greater than 100 µM, a GI50 [6] of 4.82 µM and a TGI [6] greater than 100 µM. The GI50 [7] was 4.2 µM, the TGI [7] was greater than 100 µM and the GI50 [8] was 4.23 µM. The TGI [8] was greater than 100 µM, the GI50 [9] was 1.78 µM and the TGI [9] was 4.1 µM. It also gave a GI50 [10] of 3.85 µM and a TGI [10] greater than 100 µM.
COc1ccc2c(c1)C(=O)/C(=C/c1ccc(OCC(=O)c3ccc(Cl)cc3)cc1)O2 gave a GI50 [1] of 43.8 µM, a TGI [1] greater than 100 µM and a GI50 [2] of 20 µM. The TGI [2] was 42.3 µM, the GI50 [3] was 28.3 µM and the TGI [3] was greater than 100 µM. The GI50 [4] was 3.03 µM, the TGI [4] was 12.8 µM and the GI50 [5] was 12.2 µM. For the same molecule, the TGI [5] was 37.1 µM, the GI50 [6] was 13.3 µM and the TGI [6] was 36.7 µM. For the same molecule, the GI50 [7] was 30.9 µM, the TGI [7] was greater than 100 µM and the GI50 [8] was 17.9 µM. For the same molecule, the TGI [8] was 34.8 µM, the GI50 [9] was 17.2 µM and the TGI [9] was 59.3 µM. It also gave a GI50 [10] of 15.5 µM and a TGI [10] of 35.3 µM.
In the case of COc1cccc(C2C3=C(COC3=O)N(CCO)c3cc4c(cc32)CCC4)c1 (configuration not stated), the GI50 [1] was 0.147 µM, the TGI [1] was greater than 16 µM and the GI50 [2] was 0.915 µM. The TGI [2] was greater than 50 µM, the GI50 [3] was 0.0193 µM and the TGI [3] was greater than 18.1 µM. The GI50 [4] was 0.162 µM, the TGI [4] was 1.94 µM and the GI50 [5] was 0.274 µM. For the same molecule, the TGI [5] was greater than 27.8 µM, the GI50 [6] was 0.114 µM and the TGI [6] was greater than 50 µM. The GI50 [7] was 0.0148 µM, the TGI [7] was 0.543 µM and the GI50 [8] was 0.0457 µM. The GI50 [9] was 0.0204 µM, the TGI [9] was 0.436 µM and the GI50 [10] was 0.143 µM. The TGI [10] was 11.5 µM.
For Cc1ccc2c(c1)/C(=N\N=C/c1cn(C(C)C)c3ccccc13)C(=O)N2, the GI50 [1] was 28.4 µM, the TGI [1] was greater than 100 µM and the GI50 [2] was 1.38 µM. The TGI [2] was 9.81 µM, the GI50 [3] was 0.504 µM and the TGI [3] was greater than 100 µM. For the same molecule, the GI50 [4] was 0.252 µM, the TGI [4] was 0.753 µM and the GI50 [5] was 2.67 µM. The TGI [5] was greater than 100 µM, the GI50 [6] was 0.277 µM and the TGI [6] was greater than 100 µM. For the same molecule, the GI50 [7] was greater than 100 µM, the TGI [7] was greater than 100 µM and the GI50 [8] was 2.9 µM. It also gave a TGI [8] greater than 100 µM, a GI50 [9] of 4.57 µM and a TGI [9] greater than 100 µM. The GI50 [10] was 3.9 µM and the TGI [10] was greater than 100 µM.
C/C(=N\NC(=S)Nc1ccccc1)c1ccccn1 gave a GI50 [1] of 0.0708 µM, a TGI [1] of 3.61 µM and a GI50 [2] of 0.121 µM. The TGI [2] was 5.39 µM, the GI50 [3] was 0.0148 µM and the TGI [3] was 11.8 µM. It also gave a GI50 [4] of less than 0.0278 µM, a TGI [4] of 16.9 µM and a GI50 [5] of 0.217 µM. It also gave a TGI [5] of 2.13 µM, a GI50 [6] of 0.0362 µM and a TGI [6] of 1.78 µM. For the same molecule, the GI50 [7] was 0.109 µM, the TGI [7] was 10.7 µM and the GI50 [8] was 0.581 µM. For the same molecule, the TGI [8] was 7.24 µM, the GI50 [9] was 0.199 µM and the TGI [9] was 1.56 µM. It also gave a GI50 [10] of 0.0366 µM and a TGI [10] of 2.39 µM.
For NCCCNCCCNc1nc2ccccc2c2[nH]c3ccccc3c12, the GI50 [1] was 0.0632 µM, the TGI [1] was 1.18 µM and the GI50 [2] was 1 µM. It also gave a TGI [2] of 2.74 µM, a GI50 [3] of 0.00804 µM and a TGI [3] of 1.85 µM. It also gave a GI50 [4] of 0.0252 µM, a TGI [4] of 3.62 µM and a GI50 [5] of 0.125 µM. For the same molecule, the TGI [5] was 1.6 µM, the GI50 [6] was 0.198 µM and the TGI [6] was 1.39 µM. It also gave a GI50 [7] of 0.0664 µM, a TGI [7] of 1.61 µM and a GI50 [8] of 0.156 µM. The TGI [8] was 1.55 µM, the GI50 [9] was 0.362 µM and the TGI [9] was 1.81 µM. The GI50 [10] was 0.0938 µM and the TGI [10] was 1.32 µM.
CCN1C(=O)N(CC)C2C1NN=c1s/c(=C\c3ccc([N+](=O)[O-])cc3)c(=O)n12 (configuration not stated) gave a GI50 [1] of 0.731 µM, a TGI [1] greater than 59.8 µM and a GI50 [2] of 0.587 µM. It also gave a TGI [2] greater than 100 µM, a GI50 [3] of 0.315 µM and a TGI [3] greater than 100 µM. The GI50 [4] was 0.577 µM, the TGI [4] was greater than 100 µM and the GI50 [5] was 2.16 µM. The TGI [5] was greater than 71 µM, the GI50 [6] was 0.744 µM and the TGI [6] was 10.5 µM. For the same molecule, the GI50 [7] was 0.371 µM, the TGI [7] was greater than 52.2 µM and the GI50 [8] was 0.338 µM. It also gave a TGI [8] of 2.83 µM, a GI50 [9] of 0.343 µM and a TGI [9] of 12.1 µM. It also gave a GI50 [10] of 0.506 µM and a TGI [10] greater than 100 µM.
